# Assay results taken from US8691528B2, “Cell penetrating peptide” (Mitsubishi Tanabe Pharma Corporation, priority 2005, dated 2014).
# Entries after “also recorded” stand apart in the source; their conditions may differ.
# Experiments:
# Format in all cases: cell-based
# CHO cells [1] = assay: Confocal microscopic analysis of translocation of fluorescence-labeled peptides into CHO cells; settings: for intracellular translocation profile compared with PTD1: Example 5-2, 50 μM to 12.5 μM (FIG. 19: 25 μM)
# Protocol: (§1) Three kinds of cells were used for incorporating the peptides: CHO cells (ATCC NO. CCL-61), HeLa cells, and Jurkat cells. 10^4 CHO cells and HeLa cells and 10^5 Jurkat cells were separately inoculated to a 96-well plate, and cultured for 2 or 3 days. Subsequently, when the cells became confluent, each peptide solution was added to each type of cell, and the cells were incubated for 1 hour. After each type of cell was washed with PBS three times, 100 μL of 0.25% trypsin-1 mM EDTA solution was added, and trypsinization was performed at room temperature for 5 minutes. After 400 μL of PBS (10% FCS) was added to neutralize the trypsin, the cells were washed with 1 mL of HBSS (Hanks' Balanced Salt Solution/produced by Invitrogen) three times. After the washing, the cells were suspended in 50 μL of HBSS and analyzed using a confocal microscope. Measurements and analysis were performed using a confocal differential interference laser microscope system (Bio-Rad, Radience2100/Green He-Ne, 488 nm, microscope: Nikon, ECLIPSE E600).
# Furthermore, CHO cells were inoculated to a slide chamber (produced by Nunc), 25 μM of each of the KSH1 peptide and positive control was added to the CHO cells, and the intracellular transferability thereof was determined using a confocal microscope.
# For KSH2 to KSH10 (SEQ ID NOS:35 to 43 in the sequence listing), a test of translocation into CHO cells was performed in the same manner as Example 1-2, and confocal microscopic analysis was performed. Used for positive control were a PTD sequence derived from HIV TAT (SEQ ID NO:50 in the sequence listing) and the KSH1 peptide; used for negative control was a peptide sequence lacking intracellular transferability (SEQ ID NO:57 in the sequence listing).
# In the confocal microscopic analysis, a background correction was performed using cells to which the negative control peptide (SEQ ID NO:57 in the sequence listing) had been added. Thereafter, the positive control PTD1 peptide (SEQ ID NO:50 in the sequence listing) was added, and fluorescence in the cells was examined.
# Regarding novel PTD sequence, each peptide was analyzed in a series of 2-fold dilutions at three levels from 50 μM to 12.5 μM. […] The PTD candidate sequences identified here clearly retained the capability of intracellular translocation.
# HeLa cells = assay: Confocal microscopic analysis of intracellular translocation of synthetic peptides in HeLa cells
# Protocol: as §1
# In HeLa cells as with CHO cells, intracellular translocation experiments of synthetic peptides of modified PTD sequences were performed by confocal microscopic analysis.
# Jurkat cells = assay: Confocal microscopic analysis of intracellular translocation of synthetic peptides in Jurkat cells
# Protocol: as §1
# In Jurkat cells as well, intracellular translocation experiments of synthetic peptides of modified PTD sequences were performed by confocal microscopic analysis.
# CHO cells [2] = assay: Test of translocation of fluorescence-labeled peptides into CHO cells (FACS and confocal microscopic analysis); settings: FACS
# CHO cells [3] = assay: as above; settings: for intracellular translocation compared with KSH1 (in words): 12.5 μM and 6.5 μM
# Protocol: Each peptide solution, adjusted to 1 mM, was diluted with a medium to three levels, 100 μM, 50 μM, and 25 μM, and added to cells. Three kinds of cells were used: CHO cells, HeLa cells, and Jurkat cells. After each peptide solution was added, the cells were incubated for 1 hour. After the cells were washed with PBS three times, 100 μL of 0.25% trypsin-1 mM EDTA solution was added, and trypsinization was performed at room temperature for 5 minutes. After 400 μL of PBS (10% FCS) was added to stop the trypsinization, the cells were washed with 1 mL of HBSS three times. After the washing, the cells were suspended in 500 μL of PBS (10% FCS) and subjected to flowcytometry (hereinafter, FACS) analysis using FACS Calibur (Becton Dickinson).
# Each peptide was synthesized, fluorescently labeled, purified and dissolved in the same manner as Example 1-2, a test of translocation into CHO cells was performed, and an evaluation was performed by confocal microscopic analysis and FACS. FACS analysis was performed in the same manner as Example 1-3. For the KSH1 peptide and modified PTD sequences, i.e., KSH1-1 to KSH1-9 peptides (SEQ ID NOS:1 to 9 in the sequence listing), fluorescence intensities determined by FACS analysis are shown in FIG. 6. The peptide addition concentrations were 50 μM, 25 μM, 12.5 μM and 6.5 μM.
# To determine which amino acids are important to the intracellular translocation, comprehensive alanine substitution was performed on the basis of KSH1-1 to design KSH1-11 (SEQ ID NO:11 in the sequence listing) to KSH1-23 (SEQ ID NO:22 in the sequence listing) and KSH1-35 (SEQ ID NO:32 in the sequence listing) (FIG. 7). Each peptide was synthesized, fluorescently labeled, purified and dissolved in the same manner as Example 1-2, a test of translocation into CHO cells was performed, and an evaluation was performed by confocal microscopic analysis and FACS. FACS analysis was performed in the same manner as Example 1-3. For KSH1 and modified PTD sequences, i.e., KSH11-11 to 23 and KSH1-35, fluorescence intensities determined by FACS analysis are shown in FIG. 8. The peptide addition concentrations were 50 μM, 25 μM, 12.5 μM and 6.5 μM.
# (§2) Each peptide was synthesized, fluorescently labeled, purified and dissolved in the same manner as Example 1-2, a test of translocation into CHO cells was performed, and an evaluation was performed by confocal microscopic analysis and FACS analysis. FACS analysis was performed in the same manner as Example 1-3. For KSH1 and modified PTD sequences, i.e., KSH11-24 to 1-26 and KSH1-28 to 1-30, fluorescence intensities determined by FACS analysis are shown in FIG. 10. The peptide addition concentrations were 50 μM, 25 μM, 12.5 μM and 6.5 μM.
# as §2, with “KSH1-27, KSH1-33, KSH1-34” for “KSH11-24 to 1-26”, “KSH1-36,” for “KSH1-28 to 1-30,”, “12.” for “10.”
# Each peptide was synthesized, fluorescently labeled, purified and dissolved in the same manner as Example 1-2, and an intracellular translocation test in CHO cells was performed by FACS analysis. Used for positive control were a PTD sequence derived from HIV TAT ([…] in the sequence listing) and the KSH1 peptide; used for negative control was a peptide sequence lacking intracellular transferability (SEQ ID NO:57 in the sequence listing).
# [4] = tested on: CHO cells, HeLa cells, and Jurkat cells; assay: Confocal microscopic analysis of intracellular translocation of fluorescence-labeled peptides; settings: fluorescence-labeled peptide, confocal microscope
# Description: With the PTD derived from HIV TAT protein shown by SEQ ID NO:50 in the sequence listing as the positive control (in FIG. 1 to FIG. 3, denoted by “Positive” or “TAT”), and a mutant of the TAT-derived PTD shown by SEQ ID NO:51 in the sequence listing, reported by Ulo Langel et al. (Cell-Penetrating Peptides: Processes and Applications, Series: Pharmacology and Toxicology: Basic and Clinical Aspects Volume:3, 2002), as the negative control (in FIG. 1, denoted by “Negative”), the peptides of the 11 sequences selected in Example 1-1 were evaluated.
# The peptides of the 11 sequences selected in Example 1-1 were synthesized by the solid phase method, and fluorescently labeled by coupling 5,6-Carboxyfluorescein to the N-terminus of each peptide. Furthermore, the peptides were purified by HPLC to obtain a purity of 70% or more. Subsequently, each fluorescently labeled peptide was dissolved in 10% Dimethyl Sulfoxide (DMSO) to obtain 1 mM (hereinafter referred to as peptide solution).
# as §1
# Of the novel PTD sequences found in Example 5, the KSH2 peptide is highly capable of translocating eGFP into cells; an attempt was made to modify the KSH2 peptide. The KSH2-1 to KSH2-4 peptides (SEQ ID NOS:44 to 47 in the sequence listing) were synthesized, fluorescently labeled, purified and dissolved in the same manner as Example 1-2, a test of translocation into CHO cells was performed, and confocal microscopic analysis was performed.
# First, two cases were examined: two cysteines were substituted with alanine (KSH2-1) or with tryptophan (KSH2-2). FITC-labeled peptides were synthesized, and their intracellular translocation efficiencies were examined using CHO, HeLa, and Jurkat cells (FIG. 21, the peptide addition concentration was 50 μM, 25 μM or 12.5 μM).
substance,measurement,setting,value
KSH2: novel PTD sequence from the 7-time-concentrated library of Jurkat cells (WKCRRQCFRVLHHWN; Designed peptide to act as PTD(Protein Transduction Domain)),intracellular translocation profile compared with PTD1,CHO cells [1],better intracellular translocation profiles than PTD1
same,localization of the peptide in HeLa cells,HeLa cells; Example 5-2,localized as fringing the surface of the cell membrane
KSH3: novel PTD sequence from the 7-time-concentrated library of Jurkat cells (IPSRWKDQFWKRWHY; Designed peptide to act as PTD(Protein Transduction Domain)),intracellular translocation profile compared with PTD1,CHO cells [1],better intracellular translocation profiles than PTD1
KSH10: novel PTD sequence from the 7-time-concentrated library of Jurkat cells (KRPTMRFRYTWNPMK; Designed peptide to act as PTD(Protein Transduction Domain)),intracellular translocation profile compared with PTD1,CHO cells [1],better intracellular translocation profiles than PTD1
KSH1-1: KSH1 with the lysine of the lysine/arginine cluster substituted with arginine (RLWMRWYSPTTRRYG; Designed peptide to act as PTD(Protein Transduction Domain)),intracellular translocation in Jurkat cells as compared to that of SEQ ID NO:37,Jurkat cells,better intracellular translocation
same,intracellular translocation compared with KSH1,CHO cells [2]; 6.25 μM,about 2 times
same,intracellular translocation compared with KSH1 (in words),"CHO cells [3]; 50 μM, 25 μM",clearly accentuated intracellular translocation
same,intracellular translocation compared with KSH1,"CHO cells [3]; FACS, 12.5 μM",about 8 times
same,intracellular translocation compared with KSH1,"CHO cells [3]; FACS, 25 μM",about 2 times
same,decrease of translocation efficiency compared with KSH1,"CHO cells [3]; FACS, 50 μM",about 20%
same,intracellular translocation in HeLa cells (modified peptides with better translocation),HeLa cells; confocal microscopic analysis,better intracellular translocation
KSH4: novel PTD sequence from the 7-time-concentrated library of Jurkat cells (KNAWKHSSCHHRHQI; Designed peptide to act as PTD(Protein Transduction Domain)),intracellular translocation profile compared with PTD1,CHO cells [1],better intracellular translocation profiles than PTD1
KSH7: novel PTD sequence from the 7-time-concentrated library of Jurkat cells (QQHLLIAINGYPRYN; Designed peptide to act as PTD(Protein Transduction Domain)),intracellular translocation profile compared with PTD1,CHO cells [1],better intracellular translocation profiles than PTD1
KSH6: novel PTD sequence from the 7-time-concentrated library of Jurkat cells (LITKQYRYPSRRRFN; Designed peptide to act as PTD(Protein Transduction Domain)),intracellular translocation profile compared with PTD1,CHO cells [1],better intracellular translocation profiles than PTD1
KSH1: novel PTD candidate sequence of 15 amino acids selected from the random peptide library (KLWMRWYSPTTRRYG; Designed peptide to act as PTD(Protein Transduction Domain)),localization of the intracellularly transported peptide,[4],detected both in the nucleus and in cytoplasm
same,fluorescence from the peptide in the cells,[4]; incubated 1 hour,fluorescence from the KSH1 peptide was observed
same,"fluorescence intensity compared with the positive control (PTD derived from HIV TAT, SEQ ID NO:50)",[4]; incubated 1 hour,higher than the fluorescence intensity of the positive control
same,intracellular transferability among the peptides of the 11 selected sequences,[4]; incubated 1 hour,highest intracellular transferability
same,translocation into CHO cells,"CHO cells [1]; slide chamber, 25 μM",translocated into all CHO cells
KSH1-7: KSH1 with threonine substituted with tryptophan to form a tryptophan cluster (KLWMRWYSPWTRRYG; Designed peptide to act as PTD(Protein Transduction Domain)),intracellular translocation in Jurkat cells as compared to that of SEQ ID NO:37,Jurkat cells,better intracellular translocation
same,intracellular translocation compared with KSH1,CHO cells [2]; between 25 μM and 6.15 μM,not less than 3 times
same,intracellular translocation compared with KSH1 (in words),"CHO cells [3]; 50 μM, 25 μM",accentuated remarkably; also recorded: clearly accentuated intracellular translocation
same,intracellular translocation compared with KSH1,"CHO cells [3]; FACS, 12.5 μM",not less than 10 times
same,intracellular translocation in HeLa cells compared with CHO cells,HeLa cells; confocal microscopic analysis,lower
